Test results published in patent US8637237B2, “Methods, compositions, and systems for the identification of species-specific or developmental stage-specific insecticides” (The University of North Carolina at Greensboro, priority 2003, dated 2014).

Experiments:
[1] = molecular target: T1, GRdEcR/RXR (Drosophila melanogaster, UniProt P34021, E261P/P331L/Q260P/V259R); test: GRdEcR (GEcEc) chimera with RXR, (EcRE)5-ΔMTV reporter in CHO cells; assay type: cell-based
T1 construct: ligation of a Not I-Bam HI fragment containing the DBD and LBD of a modified EcR cDNA, EcRnx; expressed in transfected cells; host or cells: CHO
T1 sequence (P34021 259-878 V259R/Q260P/E261P/P331L limits assumed): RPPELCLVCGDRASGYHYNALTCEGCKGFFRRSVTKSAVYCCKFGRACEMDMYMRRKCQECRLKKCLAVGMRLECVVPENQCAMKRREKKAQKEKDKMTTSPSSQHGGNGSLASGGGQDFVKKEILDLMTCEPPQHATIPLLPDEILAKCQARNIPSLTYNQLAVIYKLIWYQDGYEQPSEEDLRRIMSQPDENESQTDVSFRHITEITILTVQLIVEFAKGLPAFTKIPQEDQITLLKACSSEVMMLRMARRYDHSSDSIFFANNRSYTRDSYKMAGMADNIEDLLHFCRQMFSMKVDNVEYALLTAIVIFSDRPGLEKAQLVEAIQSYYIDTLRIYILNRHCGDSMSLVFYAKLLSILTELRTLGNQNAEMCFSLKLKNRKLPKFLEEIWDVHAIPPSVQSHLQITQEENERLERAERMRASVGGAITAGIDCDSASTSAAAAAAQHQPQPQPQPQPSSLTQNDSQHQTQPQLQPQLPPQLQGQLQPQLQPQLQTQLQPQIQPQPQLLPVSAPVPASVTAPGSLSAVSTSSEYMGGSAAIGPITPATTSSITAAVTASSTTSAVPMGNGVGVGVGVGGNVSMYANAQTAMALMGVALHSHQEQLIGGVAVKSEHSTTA
T1 sequence (P28700 1-467 partner): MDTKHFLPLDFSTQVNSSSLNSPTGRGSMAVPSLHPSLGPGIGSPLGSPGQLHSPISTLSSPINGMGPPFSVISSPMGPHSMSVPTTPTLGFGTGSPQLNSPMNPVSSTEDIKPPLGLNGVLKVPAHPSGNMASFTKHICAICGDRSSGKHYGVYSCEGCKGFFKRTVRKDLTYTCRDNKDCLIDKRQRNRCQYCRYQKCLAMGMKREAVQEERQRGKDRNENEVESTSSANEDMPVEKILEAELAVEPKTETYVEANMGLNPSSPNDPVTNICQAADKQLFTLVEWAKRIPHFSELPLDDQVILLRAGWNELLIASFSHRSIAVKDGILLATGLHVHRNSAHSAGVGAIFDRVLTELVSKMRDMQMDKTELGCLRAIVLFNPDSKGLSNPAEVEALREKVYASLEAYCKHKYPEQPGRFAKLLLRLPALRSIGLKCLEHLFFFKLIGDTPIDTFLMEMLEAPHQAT
Description: (§1) These experiments employed a mammalian cell culture system using Chinese hamster ovary cells (CHO) to evaluate the transcriptional function of Drosophila melanogaster EcR and USP using methods described previously (U.S. Patent Application Publication No: 2005/0049230; Henrich et al, 2003). Cells were seeded in 6-well polypropylene culture plates (Falcon) with 10^5 cells per well on the day prior to transfection. Transfection was subsequently performed using either calcium phosphate (Kitareewan et al., 1996, Mol. Biol. Cell, 7:1153-1196) or a GenePorter reagent (Gene Therapy Systems, Inc; San Diego, Calif.) following manufacturer's protocols. Each well received 1.25 μg of (EcRE)5-ΔMTV-CAT (five copies of the hsp27 EcRE inserted into an mouse mammary tumor virus (MTV) promoter upstream of the chloramphenicol acetyltransferase (CAT) gene) or (EcRE)5-ΔMTV-LUC (the same promoter attached to firefly luciferase), 1.25 μg of pCH111 (SV40 early promoter linked to the β-galactosidase gene) to normalize CAT activity, and 0.25 μg of each expression plasmid (EcR, FXR, RXR, USP) that was tested. The cells were incubated with plasmid DNA for seven hours and then washed with 1×PBS. Muristerone A (murA; Alexis Biochemicals) or 20-hydroxyecdysone (20E; Sigma) dissolved in ethanol to a concentration of 10 mM was diluted as necessary to the final assay concentration (FAC) in 2 ml of fresh incubation medium that was then applied to the cells. Similarly, JHIII (Sigma) was dissolved in dimethyl sulfoxide (DMSO) to a concentration of […] and diluted into the incubation medium to its final assay concentration (20, 40, 80, 160 μM). […] A corresponding volume of ethanol and DMSO were added to control cells for all experiments. For all experiments, the cells were allowed to incubate with the medium for 24 hours before collection and cell lysates were prepared by described methods (Kitareewan et al., 1996). Both β-galactosidase and CAT reporter activity were measured based on previously used methods (Kitareewan et al, 1996). Luciferase assays using luciferrin followed the specifications of the manufacturer.
(§2) Transcriptional activity, measured as ^14C-chloramphenicol counts (for measuring CAT activity) or relative luciferase activity (RLU) was quantified for each cell lysate. The counts were then normalized by adjusting for differences in β-galactosidase activity, since β-galactosidase expression is controlled by a constitutive promoter and provides an estimate of cell mass. Data were normalized as fold-induction based on differences in reporter gene activity between hormonally treated and control cells.
In an initial series of studies, a GRdEcR chimera that consists of the rat glucocorticoid receptor (GR) activation domain attached to the EcR DBD and LBD (FIG. 1) was cotransfected along with mRXRα into CHO cells. The response of transfected cells to murA was measured using a (EcRE)5-ΔMTV-CAT reporter plasmid that carries five tandem repeats of the hsp27 EcRE linked to the MTV (mouse mammary tumor virus) promoter and the chloramphenicol acetyltransferase gene (CAT).
The prominent candidate for this JH-responsive macromolecule in insects is the structurally-related ecdysone receptor (EcR). Like FXR, EcR heterodimerizes with RXR and binds to the hsp27 ecdysone-responsive DNA element (Forman et al., 1995), but distinctively activates transcription in response to muristerone A (MurA or MUR), a synthetic ecdysone (Yao et al., 1992). […] In the experiments shown in FIG. 15A, muristerone A (MUR) was added at the indicated doses in ethanol vehicle, and increasing amounts of JH III (12, 25, or 50 μM) were added (underlying triangles). Numbers over bars indicate the ratio of the GEcEc-dependent activity produced by 50 μM JH III in the presence of the indicated dose of MUR to the activity produced by MUR alone. Relative light units (RLU) from firefly luciferase in cell lysates are expressed relative to renilla luciferase (Promega).

[2] = molecular target: T2, FXR (Rattus norvegicus, UniProt Q62735); test: cell-based
T2 sequence (Q62735 1-469): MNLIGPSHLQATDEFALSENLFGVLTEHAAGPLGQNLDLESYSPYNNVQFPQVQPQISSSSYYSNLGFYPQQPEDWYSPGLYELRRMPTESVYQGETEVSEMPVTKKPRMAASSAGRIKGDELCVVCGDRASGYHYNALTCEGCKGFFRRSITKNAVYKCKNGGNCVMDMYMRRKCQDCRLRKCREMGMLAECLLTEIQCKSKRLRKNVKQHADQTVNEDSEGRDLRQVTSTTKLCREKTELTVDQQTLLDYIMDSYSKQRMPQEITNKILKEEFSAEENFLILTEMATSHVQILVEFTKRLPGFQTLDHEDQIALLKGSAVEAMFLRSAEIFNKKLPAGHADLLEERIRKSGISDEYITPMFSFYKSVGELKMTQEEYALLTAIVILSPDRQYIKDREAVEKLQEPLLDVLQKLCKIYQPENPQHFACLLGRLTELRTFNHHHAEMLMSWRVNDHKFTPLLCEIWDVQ
T2 sequence (P28700 1-467 partner): T1 sequence (P28700 1-467 partner)
Description: as §1, §2
In these experiments, candidate juvenoids were tested for their ability to activate FXR mediated transcription by transfecting Chinese hamster ovary (CHO) cells using the FXR plasmid, mouse RXRα, and the ΔMTV-(EcRE)5-CAT reporter as described herein. An RXR-dependent CRBPII-CAT reporter plasmid was employed in parallel assays to discern activators specific for this receptor.

[3] = test system: insect; details: from Schneiderman and Gilbert, Science 143; cited from earlier work
[4] = final dose of 50 ∝M, 1 = induction less than 2-fold below cytotoxic doses
[5] = dose 100 μM, 1 = no increase over vehicle

## C[C@H](CCC(=O)O)[C@H]1CC[C@H]2[C@@H]3[C@H](O)C[C@@H]4C[C@H](O)CC[C@]4(C)[C@H]3CC[C@]12C [CDCA, chenodeoxycholic acid]
[1]; data not shown
  induction of GEcEc: did not induce

## CC(C)=CCCC(C)=CCCC(C)=CC=O [farnesal]
[2]; 50 μM
  FXR-dependent CAT activity, induction: 2 fold
[2]; [4]
  FXR ACTIVITY (fold-induction): 2 fold-induction
[3]
  JH ACTIVITY (units/g): 32 units/g

## CC(C)=CCC/C(C)=C/CC/C(C)=C/CO [farnesol, all-trans farnesol]
[3]
  JH ACTIVITY (units/g): 140 units/g
[1]; 45 μM farnesol with MUR
  increase in GEcEc activity over that provided by MUR alone: 4 fold

## CC(=O)OCC=C(C)CCC=C(C)CCC=C(C)C [farnesyl acetate]
[3]
  JH ACTIVITY (units/g): 5.4 units/g

## CC(C)=CCC/C(C)=C/CO [geraniol]
[2]; dose not stated
  FXR-dependent activity, induction: neither the monoterpenes linalool (200 μM) nor geraniol were effective
[2]; [4]
  FXR ACTIVITY (fold-induction): 1 fold-induction
[3]
  JH ACTIVITY (units/g): 0 units/g

## CC(C)CCCC(C)CCCC(C)CCO (centres unmarked) [hexahydrofarnesol]
[3]
  JH ACTIVITY (units/g): 0 units/g

## C=CC(C)(O)CCCC(C)CCCC(C)CCCC(C)C (centres unmarked) [isophytol]
[3]
  JH ACTIVITY (units/g): 0 units/g

## C=CC(C)(O)CCC=C(C)C (centres unmarked) [linalool]
[3]
  JH ACTIVITY (units/g): 0.08 units/g

## C/C(=C\CO)CCC[C@H](C)CCC[C@H](C)CCCC(C)C [phytol]
[2]; 50 μM
  FXR-dependent CAT activity, induction: three times
[2]; [4]
  FXR ACTIVITY (fold-induction): 3 fold-induction
[3]
  JH ACTIVITY (units/g): 32 units/g

## c1cc2c(cc1[C@H]1OC[C@H]3[C@@H]1CO[C@@H]3c1ccc3c(c1)OCO3)OCO2 [sesamin]
[2]; 100 μM
  FXR-dependent activity, induction: 12 fold
[2]; [5]
  FXR ACTIVITY (fold-induction): 12 fold-induction
[1]; 25 μM test compound, 0.2 μM muristerone A
  potentiation of MUR-inducible GEcEc-dependent activity: between two and four times

## COc1cc(C2Oc3cc([C@H]4Oc5cc(O)cc(O)c5C(=O)[C@@H]4O)ccc3OC2CO)ccc1O (some centres unmarked) [silybin]
[2]; 50 μM
  FXR-dependent CAT activity, induction: 18 fold
[2]; [5]
  FXR ACTIVITY (fold-induction): 10 fold-induction

## CC(C)=CCC/C(C)=C/CC/C(C)=C/CC/C(C)=C/CC/C(C)=C/CC/C(C)=C/CC/C(C)=C/CC/C(C)=C/CC/C(C)=C/CO [solanesol]
[3]
  JH ACTIVITY (units/g): 0.05 units/g

## COc1ccc(-c2cc(=O)c3c(OC)c(OC)c(OC)c(OC)c3o2)cc1 [tangeretin]
[2]; 50 μM
  FXR-dependent CAT activity, induction: 4 fold

## O=C1c2c(O)cc(O)cc2O[C@H](c2ccc(O)c(O)c2)[C@H]1O [taxifolin]
[2]; 50 μM
  FXR-dependent CAT activity, induction: unresponsive

## Clc1cc2c(cc1Cl)Oc1cc(Cl)c(Cl)cc1O2 [tetrachloro- dibenzo-p- dioxin, 2,3,7,8-tetrachlorodibenzo-p-dioxin]
[2]; 100 nM
  FXR-dependent CAT activity, induction: 15 fold
[2]; dose 0.1 μM
  FXR ACTIVITY (fold-induction): 15 fold-induction

## Cn1cnc2c1c(=O)[nH]c(=O)n2C [theobromine]
[2]; dose not stated
  FXR-dependent activity, induction: ineffective

## O=c1[nH]c(=O)c2[nH]cnc2[nH]1 [xanthine]
[2]; dose not stated
  FXR-dependent activity, induction: ineffective

## CC(=O)/C=C/C1C(C)=CCCC1(C)C (stereo not drawn) [α-ionone]
[2]; dose 150 μM
  FXR ACTIVITY (fold-induction): 10 fold-induction

## CC1=CCC(C(C)(C)O)CC1 (stereo not drawn) [α-terpineol]
[2]; 800 μM
  FXR-dependent activity, induction: two-fold
[2]; dose 400 μM
  FXR ACTIVITY (fold-induction): 402 fold-induction

## C[C@H]1[C@H](C)CC[C@]2(C)CC[C@]3(C)C(=CC[C@@H]4[C@@]5(C)CC[C@@H](O)[C@](C)(C(=O)O)[C@@H]5CC[C@]43C)[C@H]12 [β-boswellic acid]
[2]; 25 μM
  FXR-dependent activity, induction: 11 fold
[2]; dose 25 μM
  FXR ACTIVITY (fold-induction): 11 fold-induction

## CC(=O)/C=C/C1=C(C)CCCC1(C)C [β-ionone]
[2]; dose 150 μM
  FXR ACTIVITY (fold-induction): 10 fold-induction

## CC(C)=CCC/C(C)=C/CC/C(C)=C/CC[C@]1(C)CCc2cc(O)c(C)c(C)c2O1 [γ-tocotrienol]
[2]; dose 20 μM, 1 = no increase over vehicle
  FXR ACTIVITY (fold-induction): 1 fold-induction

## aroclor 1254
[2]; 5 μM
  FXR-dependent CAT activity, induction: 5 fold

## geranyl linalool
[3]
  JH ACTIVITY (units/g): 0.14 units/g

## toxaphenes
[2]; 5 μM
  FXR-dependent CAT activity, induction: 9 fold
